PMC5553068 (Bioorganic & medicinal chemistry, 2017)

Key:
human renin = molecular target: T1, human renin (Homo sapiens, UniProt P00797); conditions: for Ligand Efficiency: Table 3
T1 sequence (P00797 67-406): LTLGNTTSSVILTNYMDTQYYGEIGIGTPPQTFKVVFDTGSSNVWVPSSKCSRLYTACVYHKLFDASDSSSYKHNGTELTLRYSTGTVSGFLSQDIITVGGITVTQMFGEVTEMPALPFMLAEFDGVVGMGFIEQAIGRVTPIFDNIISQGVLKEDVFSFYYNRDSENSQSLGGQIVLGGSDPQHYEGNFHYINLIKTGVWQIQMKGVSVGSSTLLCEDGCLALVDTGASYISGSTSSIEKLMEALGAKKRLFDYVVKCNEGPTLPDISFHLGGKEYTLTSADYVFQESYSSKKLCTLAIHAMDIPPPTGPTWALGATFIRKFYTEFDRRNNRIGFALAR

[1] = Table 7, literature comparators, no reference given; cited from earlier work
renin = conditions: ligand of the 2IKO X-ray structure; cited from earlier work
[2] = Rat in vivo pharmacokinetic studies; parameters: species or system Sprague Dawley rats; conditions: for AUC: 10 mg/kg po dose, HCl salts, vehicle D5W, mean n = 3; for clearance / bioavailability: Sprague-Dawley, plasma; for clearance: iv, 1 mg/kg; for bioavailability: po, 10 mg/kg

**Q.** Which “Ligand Efficiency” value (human renin) does the source give for `CCc1nc(N)nc(N)c1-c1ccc2c(c1)N(CCCOC)CCC2` [Compound 6c, reference compound] here?
**A.** Its value is 0.34.

**Q.** For `CCc1nc(N)nc(N)c1-c1ccc2c(c1)N(CCCOC)C(=O)C(C)(c1cc(F)cc(F)c1)O2` (centres unmarked) [Compound 7c], which “%F (rat)” value [1] is on record?
**A.** The value was 0.4%.

**Q.** With `CCc1nc(N)nc(N)c1-c1ccc(NCc2cc(F)cc(F)c2)cc1` [Compound 8] as the compound, how does the IC50 (renin) read?
**A.** Its IC50 is 4 µM.

**Q.** For `COCCCN1CCCc2ccc(-c3c(C)cc(N)nc3C)cc21` [Compound 12, 5-(1-(3-Methoxypropyl)-1,2,3,4-tetrahydroquinolin-7-yl)-4,6-dimethylpyridin-2-amine], which “Ligand Efficiency” value (human renin) is on record?
**A.** The value was 0.27.

**Q.** Which “Ligand Efficiency” value (human renin) does the source give for `CCc1nc(N)cc(C)c1-c1ccc2c(c1)N(CCCOC)CCC2` [Compound 13, 6-Ethyl-5-(1-(3-methoxypropyl)-1,2,3,4-tetrahydroquinolin-7-yl)-4-methylpyridin-2-amine] here?
**A.** The value was 0.34.

**Q.** With `CCc1nc(N)cc(OC)c1-c1ccc2c(c1)N(CCCOC)CCC2` [Compound 15, 6-Ethyl-4-methoxy-5-(1-(3-methoxypropyl)-1,2,3,4-tetrahydroquinolin-7-yl)pyridin-2-amine] as the compound, how does the “Ligand Efficiency” value (human renin) read?
**A.** The value was 0.33.

**Q.** For `CCc1nc(N)cc(C)c1-c1cccc2c(C)c[nH]c12` [Compound 20, 6-Ethyl-4-methyl-5-(3-methyl-1H-indol-7-yl)pyridin-2-amine], which “fold improvement in activity” value (human renin; going from 17 to 19 and then to 20) is on record?
**A.** Its value is 36 fold.

**Q.** For `CCc1nc(N)cc(C)c1-c1ccc(F)c2c(C)c(CCOC)[nH]c12` [Compound 27, 6-Ethyl-5-(4-fluoro-2-(2-methoxyethyl)-3-methyl-1H-indol-7-yl)-4-methylpyridin-2-amine], which AUC [2] is on record?
**A.** The AUC was 473 ngh/mL.

**Q.** And the clearance [2]?
**A.** The clearance was 68 mL/min/kg.

**Q.** And the bioavailability [2]?
**A.** The bioavailability was 20%.

**Q.** With `CCc1nc(N)cc(C)c1-c1ccc2c(c1)N(CCNC(C)=O)C(=O)C(C)(C)O2` [Compound 32, N-(2-(6-(6-Amino-2-ethyl-4-methylpyridin-3-yl)-2,2-dimethyl-3-oxo-2H-benzo[b][1,4]oxazin-4(3H)-yl)ethyl)acetamide] as the compound, how does the AUC [2] read?
**A.** The AUC was 1810 ngh/mL.

**Q.** What about the clearance [2] of the same compound?
**A.** The clearance was 66 mL/min/kg.

**Q.** And the bioavailability [2]?
**A.** The bioavailability was 58%.

**Q.** Which AUC [2] does the source give for `CCc1nc(N)cc(OC)c1-c1ccc2c(c1)N(CCNC(C)=O)C(=O)C(C)(C)O2` [Compound 33, N-(2-(6-(6-Amino-2-ethyl-4-methoxypyridin-3-yl)-2,2-dimethyl-3-oxo-2H-benzo[b][1,4]oxazin-4(3H)-yl)ethyl)acetamide] here?
**A.** The AUC was 1493 ngh/mL.

**Q.** What about the clearance [2] of the same compound?
**A.** The clearance was 56 mL/min/kg.

**Q.** And the bioavailability [2]?
**A.** The bioavailability was 39%.

**Q.** Which “fold improvement in affinity vs 7b” value (human renin; 6-ethyl-2-aminopyridine head group vs pyrimidine 7b, Table 5) does the source give for `CCc1nc(N)cc(C)c1-c1ccc2c(c1)N(CCCOC)C(=O)C(C)(C)O2` [Compound 34, 6-(6-Amino-2-ethyl-4-methylpyridin-3-yl)-4-(3-methoxypropyl)-2,2-dimethyl-2H-benzo[b][1,4]oxazin-3(4H)-one] here?
**A.** Its value is 2- to 3 fold.
